{
  "source": "patent US9307761B2",
  "about": "“Microbial composition” (Rohm and Haas Company, priority 2011, dated 2016)",
  "format_in_all_cases": "cell-based",
  "key": {"[1]": {"test_system": "Staphylococcus aureus (10788 strain)", "assay": "Antimicrobial efficacy of actives against S. aureus in water, 15 seconds contact", "details": "for MBC (minimum biocidal concentration): against S. Aureus, in water; for NMBS: S. aureus"}, "[2]": {"test_system": "Escherichia coli (E. coli—ATCC #10536)", "assay": "Automated assessment of efficacy in model surfactant medium (2.85% sodium cocoyl glycinate and 1.85% sodium lauroamphoacetate), 15 seconds exposure, delta OD450/OD590", "details": "for No. of replicates showing growth (out of 4) / Δ OD 450 nm = OD450 (time = 16 hours) − OD450 (time zero), Mean / Δ OD 590 nm OD590 (time = 16 hours) − OD590 (time zero), Mean: 15 s exposure", "experimental": "Micobiocidal Activity of Actives as Per the Invention in a Model Surfactant Medium Test Methodology for Automated Assessment of Efficacy in Surfactant Base\nSolutions were prepared such that the concentrations of the surfactant components and test actives were 1.1×the final desired concentration in order to allow for dilution with the bacterial inoculum in the test. The solutions were manually adjusted to […] by dropwise addition of sodium hydroxide solution, as measured with a pH meter at ambient temperature.\nTests were conducted using standard microtiter plate assays using an automated liquid handling system, 270 μl of the surfactant test solution was pipetted into each well of the microtitre plate and 30 μl of the bacterial suspension was then added. After exactly 15 seconds of bacterial exposure, a 30 μl volume of bacterial cells was withdrawn and transferred to 270 μl of D/E quench solution. After 5 minutes in the D/E quench, the optical density (OD) was measured for each plate in turn at two specific wavelengths (450 nm and 590 nm). These provide a dual check of antimicrobial activity, as the OD450 reading is specific for the yellow colour of D/E quench when bacterial growth is observed, whereas OD590 is specific for the initial purple colour of the D/E quench which is retained if no bacterial growth is observed. After the time zero OD measurements, plates were then incubated at 37° C. overnight (16 hours) before repeating the OD measurements. Delta OD values were calculated by subtracting […]. Bacterial growth is observed as art increase in OD450 and a decrease in ΔOD590. To identify antibacterially efficacious systems (those preventing appreciable bacterial growth after incubation), the following threshold changes in OD readings have been adopted: if (1). OD450 increases by less than 0.2 absorbance unit on incubation and (2). OD590 decreases by less than 0.35 unit on incubation. Conversely, where OD450 increases by more than 0.2 AU and OD590 decreases by more than 0.35 unit after incubation, corresponding to a colour shift from purple to yellow, the test system allows bacterial growth and is not deemed efficacious, four replicate measurements in the same plate have been made for each test system. The number of replicate wells showing either bacterial growth or no growth is also readily assessed by eye by following the colour change.\nDose responses for individual components and binary mixtures of actives at a fixed concentration ratio were generated by sequential dilution of liquors with further surfactant solution to obtain a series of endpoints.\nIn some selected cases, the combinations were also tested at the weight ratio 1:1."}, "[3]": {"test_system": "Escherichia coli (10536 strain)", "assay": "15 seconds contact kill assay of actives in water, mean bacterial survival NMBS", "details": "E. coli; for NMBS: alone, 15 seconds contact"}, "[4]": {"test_system": "S. aureus", "assay": "Synergy of terpinyl alcohols with phenolic compounds in water against S. aureus, log reduction after 15 seconds contact", "experimental": "The procedure used was as follows:\nLiquid actives were used directly. Solid actives were dissolved in alcohol and a 50% stock was made.\nPreparation of Test Cultures:\nThe culture was grown overnight in Tryptone soya agar.\nTo 9 ml water the actives were added to give the desired concentration. 1 ml of the culture was added and mixed. After 15 seconds contact 1 ml aliquot was removed and added to a neutraliser and kept for 5 minutes. A control of untreated cells was similarly processed. It was then diluted and plated. The plates were incubated at 37° C. for 24 hours. The colonies on the plates were counted. The counts were converted to log10. The log no. of survivors was determined and log reduction calculated."}, "[5]": {"test_system": "Escherichia coli (E. coli—ATCC #10536)", "assay": "Synergy tests: high resolution MBC microtiter plate assay, 15 seconds contact, phosphate buffer containing […] dipropylene glycol", "details": "E. coli 10536; at Qa and Qb; <1 synergy, 1 additivity, >1 antagonism", "from_the_text": "The concentrations and ratios may also vary under different test conditions or with different test methods.\nOne measure of synergy is the industrially accepted method described by Kull, F. C.; Eisman, P. C.; Sylwestrowicz, H. D. and Mayer, R. L., in Applied Microbiology 9:538-541 (1961), using the ratio determined by the formula: Qa/QA+Qb/QB=Synergy Index (“SI”) wherein: • QA=concentration of compound A (first component) in percent, acting alone, which produced an end point (MBC of Compound A). • Qa=concentration of compound A in percent, in the mixture, which produced an end point. • QB=concentration of compound B (second component) in percent, acting alone, which produced an end point (MBC of Compound B). • Qb=concentration of compound B in percent, in the mixture, which produced an end point.\nWhen the sum of Qa/QA and Qb/QB is greater than one, antagonism is indicated. […] The lower the SI, the greater is the synergy shown by that particular mixture. The minimum biocidal concentration (MBC) of a microbicide is the lowest concentration tested under a specific set of conditions that provides complete kill of the tested microorganisms.\nSynergy tests were conducted using standard microtiter plate assays with phosphate buffer containing 3.5% dipropylene glycol (DPG). In this method, a wide range of combinations of chemicals was tested by conducting high resolution MBC assays of Component (A) in the presence of various concentrations of Component (B). High resolution MBCs were determined by adding varying amounts of microbicide to one column of a microtiter plate and doing subsequent […] dilutions using an automated liquid handling system to obtain a series of closely spaced endpoints. The MBC plate was inoculated one column at a time with the test microorganism. An aliquot of the inoculated well was transferred at 15 seconds to a plate containing a neutralizing agent (D/E Neutralizing Broth), mixed and held for 5 minutes before being transferred to a growth plate containing trypticase soy broth (TSB). The TSB plate was incubated at 37° C. and read for the presence/absence of growth at 24 hours. The lowest level tested that provided complete kill (as evidenced by no growth in the microtitre plate) of the test organisms in 15 seconds is the minimum biocidal concentration (MBC).\nThe synergy of the combinations of the present invention was determined against a bacterium, Escherichia coli (E. coli—ATCC #10536), at a concentration of approximately 1×10^8 bacteria, per mL. This microorganism is representative of natural contaminants in many consumer and industrial applications."}, "[6]": {"details": "single active alone at 0.125% w/v, water"}, "[7]": {"details": "single active alone at 0.05% w/v, model surfactant solution"}, "[8]": {"details": "single active alone at 0.1% w/v, model surfactant solution"}, "[9]": {"details": "single active alone at […] w/v, model surfactant solution"}},
  "data": [
    {"smiles": "CCCc1ccccc1O", "note": "[2-n-propylphenol]", "values": [
      {"measurement": "MBC (minimum biocidal concentration)", "setting": "[1]", "result": 0.25, "unit": "% w/v"},
      {"measurement": "MBC of phenol", "setting": "[1]; phenol alone, complete bacterial kill against S. aureus, water", "result": "0.25 % (w/v)"},
      {"measurement": "NMBS", "setting": "[1]; single active alone at 0.1% w/v, water", "result": 7.30, "unit": "log CFU/ml"},
      {"measurement": "NMBS", "setting": "[1]; [6]", "result": 7.19, "unit": "log CFU/ml"},
      {"measurement": "NMBS", "setting": "[1]; single active alone at […] w/v, water", "result": 0, "unit": "log CFU/ml"},
      {"measurement": "No. of replicates showing growth (out of 4)", "setting": "[2]; [7]", "result": 4},
      {"measurement": "Δ OD 450 nm = OD450 (time = 16 hours) − OD450 (time zero), Mean", "setting": "[2]; [7]", "result": "−1.43"},
      {"measurement": "Δ OD 590 nm OD590 (time = 16 hours) − OD590 (time zero), Mean", "setting": "[2]; [7]", "result": 0.46},
      {"measurement": "No. of replicates showing growth (out of 4)", "setting": "[2]; [8]", "result": 4},
      {"measurement": "Δ OD 450 nm = OD450 (time = 16 hours) − OD450 (time zero), Mean", "setting": "[2]; [8]", "result": "−1.42"},
      {"measurement": "Δ OD 590 nm OD590 (time = 16 hours) − OD590 (time zero), Mean", "setting": "[2]; [8]", "result": 0.46},
      {"measurement": "No. of replicates showing growth (out of 4)", "setting": "[2]; [9]", "result": 4},
      {"measurement": "Δ OD 450 nm = OD450 (time = 16 hours) − OD450 (time zero), Mean", "setting": "[2]; [9]", "result": "−1.15"},
      {"measurement": "Δ OD 590 nm OD590 (time = 16 hours) − OD590 (time zero), Mean", "setting": "[2]; [9]", "result": 0.66},
      {"measurement": "NMBS", "setting": "[3]; 0.05% w/v", "result": 7.71, "unit": "log CFU/ml"},
      {"measurement": "NMBS", "setting": "[3]; 0.125% w/v", "result": 0, "unit": "log CFU/ml"},
      {"measurement": "MBC (minimum biocidal concentration)", "setting": "[3]; in water, component alone", "result": 0.125, "unit": "% w/v"},
      {"measurement": "NMBS", "setting": "[3]; […] w/v", "result": 0, "unit": "log CFU/ml"}
    ]},
    {"smiles": "CCC(C)c1ccc(O)cc1", "note": "(centres unmarked) [4-sec butyl phenol]", "values": [
      {"measurement": "Log reduction S. aureus ATCC 6538", "setting": "[4]; phenolic compound alone at 0.05%", "result": 0.0}
    ]},
    {"smiles": "C=C(C)[C@@H]1CC=C(CO)CC1", "note": "[(4S)-(4-(prop-1-en-2-yl)cyclohex-1-enyl)methanol]", "values": [
      {"measurement": "MBC (minimum biocidal concentration)", "setting": "[1]", "result": ">1.0", "unit": "% w/v"},
      {"measurement": "NMBS", "setting": "[1]; [6]", "result": 7.19, "unit": "log CFU/ml"},
      {"measurement": "NMBS", "setting": "[1]; single active alone at 0.4% w/v, water", "result": 7.14, "unit": "log CFU/ml"},
      {"measurement": "NMBS", "setting": "[1]; single active alone at 0.625% w/v, water", "result": 7.15, "unit": "log CFU/ml"},
      {"measurement": "NMBS", "setting": "[1]; single active alone at 1.0% w/v, water", "result": 7.39, "unit": "log CFU/ml"},
      {"measurement": "MBC of terpene alcohol", "setting": "[1]; terpene alcohol alone, complete bacterial kill against S. aureus, water", "result": "1.0 % (w/v)"},
      {"measurement": "MBC", "setting": "[2]; Escherichia coli, ATCC10536, 15 s, in 2.85% sodium cocoyl glycinate + 1.85% sodium lauroamphoacetate solution at pH 10, E. coli, read-out: MBC (minimum biocidal concentration)", "result": 4000, "unit": "µg/mL"},
      {"measurement": "MBC of terpene alcohol", "setting": "[2]; terpene alcohol alone, complete bacterial kill against E. coli, model surfactant solution", "result": "0.4 % (w/v)"},
      {"measurement": "SI (Synergy Index = Qa/QA + Qb/QB)", "setting": "[5]", "result": 1.00}
    ]},
    {"smiles": "C=C(C)[C@@H]1CC=C(CO)CC1", "note": "[perillyl alcohol]", "values": [
      {"measurement": "Log reduction S. aureus ATCC 6538", "setting": "[4]; terpinyl alcohol alone at […]", "result": "−0.6"}
    ]}
  ]
}
